The term IC50 denotes the concentration that gives 50% inhibition.

Data on 18 compounds can be found in US20090270363A1, “2-Aryl- and 2-Heteroarylthiazolyl Compounds, Methods for Their Preparation and Use Thereof” (Wyeth, priority 2008, published 2009).

Type in all cases: cell-based
Experiment [1] relates to securin "knock out" cells F3 (Securin-/-). In words: Growth inhibition (sulforhodamine B, 5 days) of securin knock out cells F3. As to conditions: for IC50: 120 h, securin knock out F3 cells, 5 days, SRB; for Selectivity Ratio F3: IC50 HCT116 / IC50 securin KO F3. The method, then:
(§1) IC50 analysis was performed for selected fused bicyclic 2-aryl or 2-heteroarylthiazolyl compounds that were tested on HCT116 cells and Securin “knock out” cell lines.
(§2) Cell Culture—HCT116 and securin “knock out” cells. HCT116 and securin “knock out” cells (D8 and F3) were grown in RPMI+5% fetal bovine serum and gentamycin. They were maintained in a humidified 37° C. incubator with 5% CO2. Since the securin “knock out” cells have active chromosomal instability, cells were used at a low passage number of 2-13 passages. At or before passage 13 a new vial of cells was thawed and used for the screen. Cell seeding—HCT116 cells and securin “knock out” cells were trypsinized and suspended in RPMI+5% FBS at a density of 27,000 cells/mL. HCT116 and securin “knock out” cells were seeded separately in wells of a 96-well plate (Falcon Cat # 35-3872) at a cell density of 4000 cells per well. Cells were seeded in 150 μL of RPMI media containing 5% FBS and gentamycin. Cell seeding was performed under aseptic conditions. Cells were allowed to attach and grow overnight in a humidified 37° C. incubator.
(§3) Compound Dilution and Dispensation. A series of stock solutions, 10 mg/mL of fused bicyclic 2-aryl- or 2-heteroarylthiazolyl compounds to be tested, were brought to room temperature. The compounds were diluted 1:50 in RPMI+5% FBS (Highest concentration 200 μg/mL). The compounds were then serially diluted 1:3 across a deep-well titration plate resulting in final concentrations in the plate of 200, 66.7, 22.2, 7.4, 2.4, 0.8, 0.27, 0.091, 0.03, 0.01, and 0.0034 μg/mL with one well left without a compound. 50 μL of this dilution series was added to the 150 μL of cells to result in a final concentration of compound in with the cells of 50, 16.6, 5.5, 1.8, 0.6, 0.2, 0.068, 0.023, 0.0076, 0.0025, and 0.00084 μg/mL. The dilution and addition of compounds to the plates is performed using a Multimek 96 Robot (Beckman Coulter).
(§4) Incubation and analysis. After dosing, the cells in the 96 well plates were returned to the humidified 37° C. incubator. The compounds remained on the cells for 5 days. After 5 days, the cells were fixed to the plates with the addition of 50 μL of 50% (vol/vol) Trichloro Acetic Acid ([…]). The cells were fixed at 4° C. for 1 hour. The plates were washed 5 times in distilled water and allowed to dry. The cells were stained with 0.4% sulforhodamine B (Sigma) in 1% acetic acid. The cells were stained for 15 minutes at room temperature. The plates were then washed 3 times in 1% acetic acid. The plates were dried and the dye was solubilized in 10 mM Tris at pH 8.0. The plates were read on the Absorbence 560 setting on a Victor^2 V Model 1420 Multilabel HTS counter (Perkin Elmer).
(§5) Analysis of Results—IC50 data. Absorbence data was read off of the Victor and was converted to a percentage of the control (untreated) values. IC50 values were graphed and the point at which a 50% inhibition of the control level was determined. […] If the model was not able to determine an IC50, the IC50 was assigned to the lowest concentration that gives a 50% or greater decrease in absorbence compared to control levels. If the calculated IC50 value for a cell line exceeds the top concentration for the assay (typically 50 μg/mL), the assay was scored as >50.
(§6) Selectivity Ratio. The Selectivity Ratio is the ratio of IC50s between the parent cell line and the knock out cell line and is always a positive number and is typically an integer.

Experiment [2] concerns HCT116 cells (Securin+/+, securin parental, HCT116 FB). Description: Growth inhibition (sulforhodamine B, 5 days) of securin parental cells. As to conditions: Homo sapiens, HCT-116, 120 h, SRB. As for the experimental part: as §1, §2, §3, §4, §5, §6
For experiment [3], the system named is securin "knock out" cells D8 (Securin-/-). Description: Growth inhibition (sulforhodamine B, 5 days) of securin knock out cells D8. As to conditions: for IC50: 120 h, securin knock out D8 cells, 5 days, SRB; for Selectivity Ratio D8: IC50 HCT116 / IC50 securin KO D8. The method, then: as §1, §2, §3, §4, §5, §6

For `CN(C)c1ccc(-c2nc3c(s2)C(O)CCC3)c(Br)c1` (stereo not drawn) [Example 140, 2-[2-bromo-4-(dimethylamino)phenyl]-4,5,6,7-tetrahydro-1,3-benzothiazol-7-ol], in experiment [1], 1.8 µM corresponded to half-maximal inhibition (IC50) and the “Selectivity Ratio F3” value is reported as 21. For the same compound, the IC50 in experiment [2] came out at 37.2 µM. In addition, in experiment [3], the IC50 is 0.57 µM and the “Selectivity Ratio D8” value was found to be 66.
In the same order, the values of `OC1CCCc2nc(-c3ccc(N4CCCC4)cc3)sc21` (stereo not drawn) [Example 158, 2-(4-pyrrolidin-1-yl-phenyl)-4,5,6,7-tetrahydro-benzothiazol-7-ol] are 2.9 µM, 54, 154 µM, 1.7 µM and 91.
In the case of `CN(C)c1ccc(-c2nc3c(s2)C(O)CCC3)c(C=O)c1` (stereo not drawn) [Example 67], in experiment [1], the IC50 was 0.15 µM and the “Selectivity Ratio F3” value is on record as 206. Besides, the IC50 in experiment [2] was determined as 31 µM. Further, in experiment [3], the IC50 turned out to be 0.059 µM and the “Selectivity Ratio D8” value was 525.
In the same order, the values of `OCc1cc(N2CCCC2)ccc1-c1nc2c(s1)C(O)CCC2` (stereo not drawn) [Example 162, 2-(2-Hydroxymethyl-4-pyrrolidin-1-yl-phenyl)-4,5,6,7-tetrahydro-benzothiazol-7-ol] are 0.046 µM, 333, 15.3 µM, 0.05 µM and 304.
In the case of `CN(C)c1ccc(-c2nc3c(s2)C(O)CCC3)c(C(=O)OCc2ccncc2)c1` (stereo not drawn) [Example 127, pyridin-4-ylmethyl 5-(dimethylamino)-2-(7-hydroxy-4,5,6,7-tetrahydro-1,3-benzothiazol-2-yl)benzoate], the values for the IC50 in experiment [1], in experiment [2] and in experiment [3] were 6.3 µM, 100 µM and 4.9 µM, respectively. In experiment [1], the “Selectivity Ratio F3” value turned out to be 16. For the same compound, the “Selectivity Ratio D8” value in experiment [3] amounted to 20.
In the same order, the values of `CCCOC(=O)c1cc(N(C)C)ccc1-c1nc2c(s1)C(O)CCC2` (stereo not drawn) [Example 121, propyl 5-(dimethylamino)-2-(7-hydroxy-4,5,6,7-tetrahydro-1,3-benzothiazol-2-yl)benzoate] are 1.7 µM, 77.3 µM, 0.69 µM, 44 and 112.
In the same order, the values of `CN(C)c1ccc(-c2nc3c(s2)C(O)CCC3)c(C(=O)OCc2ccccn2)c1` (stereo not drawn) [Example 128, pyridin-2-ylmethyl 5-(dimethylamino)-2-(7-hydroxy-4,5,6,7-tetrahydro-1,3-benzothiazol-2-yl)benzoate] are 2.6 µM, 86.7 µM, 1.9 µM, 33 and 45.
As for `CN(C)c1ccc(-c2nc3c(s2)[C@H](O)CC3)cc1` [Example 6, (6R)-2-[4-(dimethylamino)phenyl]-5,6-dihydro-4H-cyclopenta[d][1,3]thiazol-6-ol], in experiment [1], half-maximal inhibition (IC50) required 0.84 µM and the “Selectivity Ratio F3” value was 52. Besides, the IC50 in experiment [2] turned out to be 43.4 µM. Also, in experiment [3], inhibition was half-maximal at 0.46 µM (IC50) and the “Selectivity Ratio D8” value was found to be 95.
`CN(C)c1ccc(-c2nc3c(s2)C(O)CCC3)c(C(C)(C)O)c1` (stereo not drawn) [Example 72, 2-[4-(dimethylamino)-2-(1-hydroxy-1-methylethyl)phenyl]-4,5,6,7-tetrahydro-1,3-benzothiazol-7-ol]: in experiment [1], it took 2 µM to reach half-maximal inhibition (IC50) and the “Selectivity Ratio F3” value was determined as 27. In addition, the IC50 in experiment [2] amounted to 54 µM. Moreover, in experiment [3], inhibition was half-maximal at 1 µM (IC50) and the “Selectivity Ratio D8” value came to 52.
In the case of `CC(C)OC(=O)c1cc(N(C)C)ccc1-c1nc2c(s1)C(O)CCC2` (stereo not drawn) [Example 111, isopropyl 5-(dimethylamino)-2-(7-hydroxy-4,5,6,7-tetrahydro-1,3-benzothiazol-2-yl)benzoate], the IC50 worked out at 1.4 µM in experiment [1], 100 µM in experiment [2] and 1.3 µM in experiment [3]. Further, the “Selectivity Ratio F3” value in experiment [1] was determined as 71. Moreover, the “Selectivity Ratio D8” value in experiment [3] is 75.
In the same order, the values of `Cc1cc(N(C)C)ccc1-c1nc2c(s1)[C@H](O)CCC2` [Example 99, (7R)-2-[4-(dimethylamino)-2-methylphenyl]-4,5,6,7-tetrahydro-1,3-benzothiazol-7-ol] are 0.21 µM, no less than 173 µM, 0.24 µM, 810 and 709.
In the same order, the values of `CN(C)c1ccc(-c2nc3c(s2)C(O)CC3)cc1` (stereo not drawn) [Example 5, 2-[4-(dimethylamino)phenyl]-5,6-dihydro-4H-cyclopenta[d][1,3]thiazol-6-ol] are 1.8 µM, 54.3 µM, 1.3 µM, 30 and 43.
Turning to `CC(=O)c1c(-c2nc3c(s2)C(O)CCC3)ccc(N(C)C)c1Br` (stereo not drawn) [Example 81, 1-[2-bromo-3-(dimethylamino)-6-(7-hydroxy-4,5,6,7-tetrahydro-1,3-benzothiazol-2-yl)phenyl]ethanone], in experiment [1], the IC50 was 0.35 µM and the “Selectivity Ratio F3” value was found to be 170. The IC50 in experiment [2] is 58.9 µM. Further, in experiment [3], the IC50 is 0.13 µM and the “Selectivity Ratio D8” value is 459.
Consider `CCc1cc(N(C)C)ccc1-c1nc2c(s1)C(O)CCC2` (stereo not drawn) [Example 47, 2-[4-(dimethylamino)-2-ethylphenyl]-4,5,6,7-tetrahydro-1,3-benzothiazol-7-ol], for which, in experiment [1], half-maximal inhibition (IC50) required 3 µM and the “Selectivity Ratio F3” value is recorded as 26. Further, in experiment [2], the IC50 was 76.4 µM. Besides, in experiment [3], the midpoint of inhibition, the IC50, lay at 0.43 µM and the “Selectivity Ratio D8” value was determined as 179.
In the same order, the values of `CN(C)c1ccc(-c2nc3c(s2)C(O)CCC3)c(CO)c1` (stereo not drawn) [Example 60, 2-[4-(dimethylamino)-2-(hydroxymethyl)phenyl]-4,5,6,7-tetrahydro-1,3-benzothiazol-7-ol] are 0.12 µM, 821, 97.5 µM, 0.091 µM and 1076.
As for `N#Cc1cc(N2CCCC2)ccc1-c1nc2c(s1)C(O)CCC2` (stereo not drawn) [Example 85, 2-(7-hydroxy-4,5,6,7-tetrahydro-1,3-benzothiazol-2-yl)-5-pyrrolidin-1-ylbenzonitrile], the IC50 in experiment [1] came out at 0.31 µM; in experiment [2] it was 48.4 µM; in experiment [3], 0.19 µM. Moreover, the “Selectivity Ratio F3” value in experiment [1] is 159. The “Selectivity Ratio D8” value in experiment [3] came out at 253.
In the same order, the values of `C=CCOC(=O)c1cc(N(C)C)ccc1-c1nc2c(s1)C(O)CCC2` (stereo not drawn) [Example 112, allyl 5-(dimethylamino)-2-(7-hydroxy-4,5,6,7-tetrahydro-1,3-benzothiazol-2-yl)benzoate] are 0.72 µM, 97.3 µM, 0.54 µM, 135 and 182.
In the same order, the values of `CN(C)c1ccc(-c2nc3c(s2)C(O)CCC3)c(C(=O)OCc2cccs2)c1` (stereo not drawn) [Example 123, 2-thienylmethyl 5-(dimethylamino)-2-(7-hydroxy-4,5,6,7-tetrahydro-1,3-benzothiazol-2-yl)benzoate] are 4.4 µM, 90 µM, 1.7 µM, 20 and 52.
